Measured values as given in US9611277B2 (Janssen Pharmaceutica NV, priority 2013, dated 2017).

Legend:
[1] = target: human orexin 2 receptor (Homo sapiens (Human), UniProt O43614); assay: Human orexin 2 receptor radioligand binding; conditions: human orexin 2 receptor; averages of 2-20 runs; read-out: hOX2 Ki
Procedure, shortened: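 HEK293 cells stably expressing human OX2 receptor, homogenized, incubated with [3H]-EMPA and compounds (DMSO ≤0.1%); nonspecific binding with 10 μM almorexant. Filter-bound radioactivity counted by scintillation; IC50 from one-site competition fit of triplicates, Ki from IC50 and predetermined radioligand Kd, averaged over 2-20 runs.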

[2] = target: human orexin 1 receptor (Homo sapiens, UniProt O43613); assay: Human orexin 1 receptor radioligand binding; conditions: human orexin 1 receptor; averages of 2-20 runs; read-out: hOX1 Ki
Procedure, shortened: (§1)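 Competition binding with the tritiated thiazolyl-pyrrolidinyl-methanone radioligand in PBS on homogenized rat or human OX1R-expressing cell suspensions, ≤0.1% DMSO; nonspecific binding defined with 10 μM almorexant. Bound radioactivity read by scintillation after filtration; IC50 from one-site competition fit, converted to Ki using pre-determined radioligand Kd.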

[3] = target: rat orexin 1 receptor (Rattus norvegicus, UniProt P56718); assay: Rat orexin 1 receptor radioligand binding; conditions: rat orexin 1 receptor; averages of 2-20 runs; read-out: rOX1 Ki
Procedure, shortened: as §1

Chain of human orexin 2 receptor (O43614 whole entry): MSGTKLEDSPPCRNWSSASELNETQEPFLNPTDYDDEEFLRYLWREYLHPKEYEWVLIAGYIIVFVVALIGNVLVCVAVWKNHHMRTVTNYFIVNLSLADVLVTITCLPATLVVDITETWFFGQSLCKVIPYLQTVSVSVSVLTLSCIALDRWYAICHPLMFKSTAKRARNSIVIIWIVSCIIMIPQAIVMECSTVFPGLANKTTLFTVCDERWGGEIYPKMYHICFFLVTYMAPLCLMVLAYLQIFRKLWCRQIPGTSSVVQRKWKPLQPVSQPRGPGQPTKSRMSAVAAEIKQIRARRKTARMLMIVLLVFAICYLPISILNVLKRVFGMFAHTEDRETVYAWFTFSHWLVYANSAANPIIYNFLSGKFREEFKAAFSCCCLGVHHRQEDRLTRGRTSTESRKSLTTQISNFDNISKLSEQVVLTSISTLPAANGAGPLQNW

Structure (SMILES)	Ki [1] [µM]	Ki [2] [µM]	Ki [3] [µM]
O=C(c1c(F)cccc1-c1ncccn1)N1C[C@H]2C[C@@H](Nc3cnc(C(F)(F)F)cn3)[C@@H]1C2 [Example 200, (2-fluoro-6-(pyrimidin-2-yl)phenyl)((1S,4S,6R)-6-((5-(trifluoromethyl)pyrazin-2-yl)amino)-2-azabicyclo[2.2.1]heptan-2-yl)methanone]	0.24	0.006	0.007
O=C(c1ccccc1-c1ncccn1)N1C[C@H]2C[C@@H](Nc3cnc(C(F)(F)F)cn3)[C@@H]1C2 [Example 201, (2-(pyrimidin-2-yl)phenyl)((1S,4S,6R)-6-((5-(trifluoromethyl)pyrazin-2-yl)amino)-2-azabicyclo[2.2.1]heptan-2-yl)methanone]	0.213	0.006	0.006
O=C(c1cc(F)ccc1-c1ncco1)N1C[C@H]2C[C@@H](Nc3cnc(C(F)(F)F)cn3)[C@@H]1C2 [Example 202, (5-fluoro-2-(oxazol-2-yl)phenyl)((1S,4S,6R)-6-((5-(trifluoromethyl)pyrazin-2-yl)amino)-2-azabicyclo[2.2.1]heptan-2-yl)methanone]	0.302	0.013	0.013
O=C(c1ccccc1-c1ncc(F)cn1)N1C[C@H]2C[C@@H](Nc3cnc(C(F)(F)F)cn3)[C@@H]1C2 [Example 203, (2-(5-fluoropyrimidin-2-yl)phenyl)((1S,4S,6R)-6-((5-(trifluoromethyl)pyrazin-2-yl)amino)-2-azabicyclo[2.2.1]heptan-2-yl)methanone]	0.545	0.009	0.009
O=C(c1cccc(F)c1-c1ncc(F)cn1)N1C[C@H]2C[C@@H](Nc3cnc(C(F)(F)F)cn3)[C@@H]1C2 [Example 204, (3-fluoro-2-(5-fluoropyrimidin-2-yl)phenyl)((1S,4S,6R)-6-((5-(trifluoromethyl)pyrazin-2-yl)amino)-2-azabicyclo[2.2.1]heptan-2-yl)methanone]	0.96	0.009	0.009
O=C(c1nccnc1-c1ccccc1)N1C[C@H]2C[C@@H](Nc3cnc(C(F)(F)F)cn3)[C@@H]1C2 [Example 205, (3-phenylpyrazin-2-yl)((1S,4S,6R)-6-((5-(trifluoromethyl)pyrazin-2-yl)amino)-2-azabicyclo[2.2.1]heptan-2-yl)methanone]	0.846	0.035	0.051
O=C(c1ccccc1-c1ccccc1)N1C[C@H]2C[C@@H](Nc3cnc(C(F)(F)F)cn3)[C@@H]1C2 [Example 206, [1,1′-biphenyl]-2-yl((1S,4S,6R)-6-((5-(trifluoromethyl)pyrazin-2-yl)amino)-2-azabicyclo[2.2.1]heptan-2-yl)methanone]	0.103	0.01	0.008
O=C(c1occc1-c1ccccc1)N1C[C@H]2C[C@@H](Nc3cnc(C(F)(F)F)cn3)[C@@H]1C2 [Example 207, (3-phenylfuran-2-yl)((1S,4S,6R)-6-((5-(trifluoromethyl)pyrazin-2-yl)amino)-2-azabicyclo[2.2.1]heptan-2-yl)methanone]	0.611	0.127	0.143
CN(c1cnc(C(F)(F)F)cn1)[C@@H]1C[C@H]2C[C@@H]1N(C(=O)c1cccc(F)c1-c1ncccn1)C2 [Example 208, (3-fluoro-2-(pyrimidin-2-yl)phenyl)((1S,4S,6R)-6-(methyl(5-(trifluoromethyl)pyrazin-2-yl)amino)-2-azabicyclo[2.2.1]heptan-2-yl)methanone]	0.846	0.006	0.007
CN(c1cnc(C(F)(F)F)cn1)[C@@H]1C[C@H]2C[C@@H]1N(C(=O)c1cc(F)ccc1-c1ncccn1)C2 [Example 209, (5-fluoro-2-(pyrimidin-2-yl)phenyl)((1S,4S,6R)-6-(methyl(5-(trifluoromethyl)pyrazin-2-yl)amino)-2-azabicyclo[2.2.1]heptan-2-yl)methanone]	0.753	0.005	0.009
CN(c1cnc(C(F)(F)F)cn1)[C@@H]1C[C@H]2C[C@@H]1N(C(=O)c1ccccc1-c1ncccn1)C2 [Example 210, ((1S,4S,6R)-6-(methyl(5-(trifluoromethyl)pyrazin-2-yl)amino)-2-azabicyclo[2.2.1]heptan-2-yl)(2-(pyrimidin-2-yl)phenyl)methanone]	0.502	0.005	0.006
O=C(c1cccc(F)c1-c1ncccn1)N1C[C@H]2C[C@@H](N(CC3CC3)c3cnc(C(F)(F)F)cn3)[C@@H]1C2 [Example 211, ((1S,4S,6R)-6-((cyclopropylmethyl)(5-(trifluoromethyl)pyrazin-2-yl)amino)-2-azabicyclo[2.2.1]heptan-2-yl)(3-fluoro-2-(pyrimidin-2-yl)phenyl)methanone]	1.3	0.016	0.031
O=C(c1cccc(F)c1-n1nccn1)N1C[C@H]2C[C@@H](Nc3cnc(Cl)cn3)[C@@H]1C2 [Example 212, ((1S,4S,6R)-6-((5-chloropyrazin-2-yl)amino)-2-azabicyclo[2.2.1]heptan-2-yl)(3-fluoro-2-(2H-1,2,3-triazol-2-yl)phenyl)methanone]	0.607	0.009	0.014
O=C(c1cc(F)ccc1-n1nccn1)N1CC2CC(Nc3cnc(Cl)cn3)C1C2 [Example 213, 1S,4S,6R)-6-((5-chloropyrazin-2-yl)amino)-2-azabicyclo[2.2.1]heptan-2-yl)(5-fluoro-2-(2H-1,2,3-triazol-2-yl)phenyl)methanone]	0.871	0.031	0.039
O=C(c1cccc(F)c1-c1ncccn1)N1C[C@H]2C[C@@H](Nc3cnc(Cl)cn3)[C@@H]1C2 [Example 214, ((1S,4S,6R)-6-((5-chloropyrazin-2-yl)amino)-2-azabicyclo[2.2.1]heptan-2-yl)(3-fluoro-2-(pyrimidin-2-yl)phenyl)methanone]	0.708	0.014	0.013
O=C(c1ccccc1-c1ncccn1)N1C[C@H]2C[C@@H](Nc3cnc(Cl)cn3)[C@@H]1C2 [Example 215, ((1S,4S,6R)-6-((5-chloropyrazin-2-yl)amino)-2-azabicyclo[2.2.1]heptan-2-yl)(2-(pyrimidin-2-yl)phenyl)methanone]	0.435	0.013	0.012
Cc1cnc(N[C@@H]2C[C@H]3C[C@@H]2N(C(=O)c2cccc(F)c2-n2nccn2)C3)cn1 [Example 217, (3-fluoro-2-(2H-1,2,3-triazol-2-yl)phenyl)((1S,4S,6R)-6-((5-methylpyrazin-2-yl)amino)-2-azabicyclo[2.2.1]heptan-2-yl)methanone]	0.39	0.029	0.012
Cc1cnc(N[C@@H]2C[C@H]3C[C@@H]2N(C(=O)c2cc(F)ccc2-n2nccn2)C3)cn1 [Example 218, (5-fluoro-2-(2H-1,2,3-triazol-2-yl)phenyl)((1S,4S,6R)-6-((5-methylpyrazin-2-yl)amino)-2-azabicyclo[2.2.1]heptan-2-yl)methanone]	0.49	0.049	0.031
Cc1cnc(N[C@@H]2C[C@H]3C[C@@H]2N(C(=O)c2cccc(F)c2-c2ncccn2)C3)cn1 [Example 219, (3-fluoro-2-(pyrimidin-2-yl)phenyl)((1S,4S,6R)-6-((5-methylpyrazin-2-yl)amino)-2-azabicyclo[2.2.1]heptan-2-yl)methanone]	0.48	0.027	0.02
